Data: patent publication US8263644B2, “Cytotoxic xanthone compounds” (Bristol-Myers Squibb Company, priority 2007, dated 2012)
Values after ≈ are worked out from the molar mass of the structure shown. Read-outs that look alike come from different tables or passages of the source.

How the values were obtained:
SKBR3 = assay: in vitro cytotoxicity, tumor cell line SKBR3; type: cell-based; settings: Homo sapiens, SK-BR-3, read-out: Cytotoxicity IC50
Procedure: (§1) General Experimental Procedures. NMR spectra were obtained on a Bruker DRX 500 MHz spectrometer, equipped with a 5-mm TXI cryoprobe. Proton and carbon chemical shifts are reported in ppm relative to DMSO at δH 2.49 and δC 39.6. LC-NMR on an enriched psoroxanthin (4) sample was conducted with a Varian Inova 600 MHz instrument, using a YMC ODS-AQ (C18) column, 4.6×150 mm, 3μ and mobile phase water-acetonitrile 7:3, isocratic, 1.2 ml/min flow rate. Low-resolution MS and MS/MS measurements were performed by +νe ESI on a Thermo Scientific Finnigan SSQ7000 (single quadrupole MS), TSQ7000 (triple quadrupole MS), or LCQ Classic (ion trap MS). High-resolution MS data were determined by HR +νe ESI on a Thermo Scientific Finnigan MAT900 (magnetic sector MS, polypropylene glycol reference) or Orbitrap (hybrid ion trap-FTICR MS). IR spectra were recorded with a Perkin-Elmer System 2000 FT-IR instrument (thin film-NaCl). UV spectra were obtained using a Hewlett-Packard 8452A diode array spectrophotometer. Sephadex LH-20 (Pharmacia Biotech) and LiChroprep Si 60, 25-40 μm (EM Separations) were used for column chromatography. HPLC(C18) conditions: Analytical: Agilent HP-1100, Waters corp. […]
(§2) The SOS active compounds 1 and 4 were evaluated for in vitro cytotoxicity in a variety of tumor cell lines. […]

HCT-116 = assay: in vitro cytotoxicity, tumor cell line HCT-116; type: cell-based; settings: Homo sapiens
Procedure: as §1, §2

A2780 = assay: in vitro cytotoxicity, tumor cell line A2780; type: cell-based; settings: Homo sapiens
Procedure: as §1, §2

[1] = test system: Escherichia coli SOS chromotest; assay: Escherichia coli SOS chromotest (TLC/HPLC biogram); type: cell-based; settings: E. coli SOS chromotest
Source text: The crude extracts as received were subjected to a modified “Kupchan” liquid-liquid partitioning sequence, (Kupchan, S. M., Britton, R. W., Ziegler, M. F., Sigel, C. W.; J. Org. Chem., 1973, 38, 178-179.), followed by gel partition chromatography (Sephadex LH-20) and/or Silica gel vacuum liquid chromatography. The fractionation was guided initially by TLC-bioautography using the Escherichia coli SOS chromotest assay. ((a) Quillardet, P.; Huisman, O.; D'Ari, R.; Hofnung, M. Proc. Natl. Acad. Sci. U.S.A. 1982, 79, 5971-5975. (b) Mamber, S. W.; Okasinski, W. G.; Pinter, C. D.; Tunac, J. B. Mutat. Res., 1986, 171, 83-90.). More precise localization of the peak of SOS activity was later made possible using HPLC biogram methodology. ((a) Fura, A.; Shu, Y.-Z.; Zhu, M.; Hanson, R. L.; Roongta, V.; Humphreys, W. G. J. Med. Chem. 2004, 47, 4339-4351. (b) Hook, D. J., More, C. F., Yacobucci, J. J., Dubay, G., O'Connor, S.; J. Chromatogr., 1987, 385, 99-108.). In this manner, analytical HPLC was used to further fractionate the SOS-active sample into 96-deep-well plates. […]
General Experimental Procedures. […] High-resolution MS data were determined by HR +νe ESI on a Thermo Scientific Finnigan MAT900 (magnetic sector MS, polypropylene glycol reference) or Orbitrap (hybrid ion trap-FTICR MS). IR spectra were recorded with a Perkin-Elmer System 2000 FT-IR instrument (thin film-NaCl). […]

6-cell line panel = assay: cytotoxicity in a 6-cell line panel; type: cell-based; settings: read-out: mean IC50, cytotoxicity
Procedure: (§3) In particular there was a clear in vitro cytotoxicity observed against ABAE cells (bovine endothelial cell line, 0.03 μg/ml).
as §1

[2] = in vitro cytotoxicity, ABAE bovine endothelial cells; type: cell-based; settings: bovine, ABAE endothelial cells; ABAE cell line
Procedure: as §3
as §1, with “corp. X-Terra […] (C18) column, 4.6×150 mm; mobile phase: 0.01 N potassium phosphate buffer pH 3.5-acetonitrile gradient, flow rate 1.2 ml/min. UV 254 nm (Hook, D. J., More, C. F., Yacobucci, J. J., Dubay, G., O'Connor, S.; J. Chromatogr., 1987, 385, 99-108.) Preparative: Beckman System Gold workstation, YMC ODS-A 5μ (C18) column, 20×100 mm. For TLC biogram (SOS) analyses, Silica gel plates (Analtech, 0.25 mm) with chloroform-methanol mixtures (i.e. 95:5 v/v) as the mobile phase were used. For HPLC biogram (SOS) analyses, fractions were collected into Beckman 96-deepwell plates using a Gilson 215 liquid handler and dried under nitrogen stream prior to bioassay.” for “corp.”
as §2

[3] = test system: ABAE cells (bovine endothelial cell line); assay: as above; type: cell-based; settings: versus the tumor cell lines
Procedure: as §3
as §1, with “corp. X-Terra […] (C18) column, 4.6×150 mm; mobile phase: 0.01 N potassium phosphate buffer pH 3.5-acetonitrile gradient, flow rate 1.2 ml/min. UV 254 nm (Hook, D. J., More, C. F., Yacobucci, J. J., Dubay, G., O'Connor, S.; J. Chromatogr., 1987, 385, 99-108.) Preparative: Beckman System Gold workstation, YMC ODS-A 5μ (C18) column, 20×100 mm. For TLC biogram (SOS) analyses, Silica gel plates (Analtech, 0.25 mm) with chloroform-methanol mixtures (i.e. 95:5 v/v) as the mobile phase were used. For HPLC biogram (SOS) analyses, fractions were collected into Beckman 96-deepwell plates using a Gilson 215 liquid handler and dried under nitrogen stream prior to bioassay.” for “corp.”
as §2

p388 mouse leukemia = settings: cited from earlier work
various tumor cell lines = settings: cited from earlier work

SMILES	IC50 (SKBR3)	IC50 (HCT-116; HCT-116, read-out: Cytotoxicity IC50)	IC50 (A2780; A2780, read-out: Cytotoxicity IC50)	SOS activity [1]	IC50 (6-cell line panel)	IC50 [2]	selectivity against bovine endothelial cells (ABAE) [3]	IC50 (HCT-116; HCT-116 cell line, read-out: Cytotoxicity IC50)	IC50 (A2780; A2780 cell line, read-out: Cytotoxicity IC50)	IC50 (6-cell line panel; mean over 6-cell line panel)	activity in vivo against p388 mouse leukemia (p388 mouse leukemia)	activity in vitro against various tumor cell lines (various tumor cell lines)
O=c1c2c(O)cccc2oc2ccc3c(c12)CC(C(O)(CO)CCl)O3 (centres unmarked) [Example 1, 3′,4′-deoxy-4′ chloropsoroxanthin-3′,5′-diol]	2000 nM	68 nM	42 nM	SOS-active	0.2 to 4 µg/mL (≈ 0.551 to 11 µM)	4 nM	showed selectivity against bovine endothelial cells (ABAE)					
O=c1c2c(O)cccc2oc2ccc3c(c12)CC(C1(CO)CO1)O3 (centres unmarked) [Example 4, Psoroxanthin]				highly potent SOS-active		102 nM		1000 nM	330 nM	0.2 to 4 µg/mL (≈ 0.613 to 12.3 µM)		
COc1cc2c(c3oc4c(O)cccc4c(=O)c13)C[C@H]([C@@]1(C)CO1)O2 [psorospermin]											significant activity	significant activity
